Values of other authors as cited in US20140234375A1, “Compositions and Methods for Eliciting an Immune Response to Escape Mutants of Targeted Therapies” (priority 2005, published 2014).

Tests used:
HCV NS3 serine protease = HCV NS3 serine protease (Hepatitis C virus genotype 1b, UniProt Q9WMX2); conditions: in vitro, major resistance mutation
HIV-1 variants = conditions: by 8 weeks of therapy
HIV gp41 = conditions: valine to alanine at amino acid 38 (V38A)

Compound: CCC[C@H](NC(=O)[C@@H]1[C@H]2CCC[C@H]2CN1C(=O)[C@@H](NC(=O)[C@@H](NC(=O)c1cnccn1)C1CCCCC1)C(C)(C)C)C(=O)C(=O)NC1CC1 [VX-950]
- frequency of Ser substitution (A156S) at amino acid 156 (HCV NS3 serine protease; share of samples): 79%

Compound: COc1ccc2c(O[C@@H]3C[C@H]4C(=O)N[C@]5(C(=O)O)C[C@H]5/C=C\CCCCC[C@H](NC(=O)OC5CCCC5)C(=O)N4C3)cc(-c3csc(NC(C)C)n3)nc2c1 [BILN 2061]
- frequency of Ala substitution (D168A) at amino acid 168 (HCV NS3 serine protease): 24%
- frequency of Val substitution (D168V) at amino acid 168 (HCV NS3 serine protease): 64%

Compound: Cc1ccnc2c1NC(=O)c1cccnc1N2C1CC1 [Nevirapine, nevirapine]
- decrease in susceptibility of patient isolates (HIV-1 variants): greater than 100 fold

Compound: enfuvirtide
- resistance to enfuvirtide (HIV gp41): 45 fold
